Article PMC2953536 (Angewandte Chemie (International ed. in English), 2010)

Experiments:
MMP-9 = MMP-9 (Homo sapiens, UniProt P14780); assay: Fluorescence-based MMP inhibition assay, MMP-9; format: biochemical; settings: inhibitor, MMP-9, fluorescence based assay, average of two experiments
MMP-12 = MMP-12 (Homo sapiens, UniProt P39900); assay: Fluorescence-based MMP inhibition assay, MMP-12; format: biochemical; settings: MMP-12, fluorescence based assay, average of two experiments
Sequence of MMP-12 (P39900 106-470, species assumed): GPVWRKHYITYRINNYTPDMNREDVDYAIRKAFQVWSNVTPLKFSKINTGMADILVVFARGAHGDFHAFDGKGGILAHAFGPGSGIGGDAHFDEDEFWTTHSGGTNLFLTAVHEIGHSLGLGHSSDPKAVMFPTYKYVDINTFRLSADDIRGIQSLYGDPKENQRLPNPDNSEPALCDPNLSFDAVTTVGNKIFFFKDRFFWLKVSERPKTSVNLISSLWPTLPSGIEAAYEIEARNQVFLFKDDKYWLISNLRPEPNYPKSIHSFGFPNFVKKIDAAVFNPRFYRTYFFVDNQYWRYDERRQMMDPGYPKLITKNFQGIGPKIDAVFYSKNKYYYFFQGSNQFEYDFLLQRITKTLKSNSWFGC

Sequence of MMP-9 (P14780 94-707, species assumed): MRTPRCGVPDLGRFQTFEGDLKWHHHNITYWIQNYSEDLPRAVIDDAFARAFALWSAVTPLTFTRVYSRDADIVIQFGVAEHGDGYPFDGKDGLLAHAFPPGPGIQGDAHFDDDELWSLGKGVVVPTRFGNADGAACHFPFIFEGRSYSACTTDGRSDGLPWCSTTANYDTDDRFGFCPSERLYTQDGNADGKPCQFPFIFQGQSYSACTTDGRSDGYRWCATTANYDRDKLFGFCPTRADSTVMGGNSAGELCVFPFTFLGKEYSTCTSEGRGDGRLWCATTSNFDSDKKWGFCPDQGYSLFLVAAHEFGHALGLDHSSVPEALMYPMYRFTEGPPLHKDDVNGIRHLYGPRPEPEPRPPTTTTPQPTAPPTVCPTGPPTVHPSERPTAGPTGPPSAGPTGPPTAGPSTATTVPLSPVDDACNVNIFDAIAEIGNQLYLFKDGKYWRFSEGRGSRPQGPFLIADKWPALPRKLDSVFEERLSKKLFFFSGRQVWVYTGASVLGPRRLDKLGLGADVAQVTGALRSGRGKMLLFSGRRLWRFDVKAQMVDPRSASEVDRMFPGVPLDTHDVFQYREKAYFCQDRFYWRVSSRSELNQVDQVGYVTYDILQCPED

IC50 (MMP-9): 6.1 µM | IC50 (MMP-12): 0.053 µM
Structure (SMILES): O=C(NCc1ccc(-c2ccccc2)cc1)c1cccc(=O)n1O [1,2-HOPO-2]
